According to patent US6245799A, “[(Indol-3-yl)-cycloalkyl]-3-substituted azetidines for the treatment of central nervous system disorders” (American Home Products Corp, priority 2000, dated 2001):
Like-named read-outs stand apart in the source and are kept apart here.

How the values were obtained:
5-HT transporter = molecular target: T1, 5-HT transporter (Rattus norvegicus, UniProt P31652); experiment: Rat Brain ^3 H-Paroxetine Binding Assay (RB 5HT Transporter)
T1 construct: frontal cortical membranes prepared from male S.D. rats; from tissue; host or cells: frontal cortical membranes of male S.D. (Sprague-Dawley) rats
Description: The 5-HT transporter affinity of the compounds of this invention was established in accordance with standard pharmaceutically accepted test procedures with representative compounds as follows:
Rat Brain ^3 H-Paroxetine Binding Assay (RB 5HT Transporter):
The following assay was used to determine a compound's affinity for the 5-HT transporter.
A protocol similar to that used by Cheetham et. al. (Neuropharmacol. 1993, 32, 737) was used. Briefly, frontal cortical membranes prepared from male S.D. rats were incubated with ^3 H-paroxetine (0.1 nM) for 60 min. at 25° C. All tubes also contained either vehicle, test compound (one to eight concentrations), or a saturating concentration of fluoxetine (10 μM) to define […]. All reactions are terminated by the addition of ice cold Tris buffer followed by rapid filtration using a Tom Tech filtration device to separate bound from free ^3 H-paroxetine. Bound radioactivity was quantitated using a Wallac 1205 Beta Plate® counter. Nonlinear regression analysis was used to determine IC50 values which were converted to Ki values using the method of Cheng and Prusoff (Biochem. Pharmacol. 1973, 22, 3099): [formula]

Human 5-HT Transporter = molecular target: T2, Human 5-HT Transporter (Homo sapiens, UniProt P31645); experiment: Inhibition of ^3 H-5-HT Uptake by cells Possessing the Human 5-HT Transporter (HC 5HT Transporter); type: cell-based
T2 construct: endogenous in cells; host or cells: Jar cells (human carcinoma cell line), treated with staurosporine to raise expression
Description: [Staurosporine greatly increases the expression of the 5-HT-transporter.] On the day of assay, vehicle, excess of fluoxetine, or test compound is added to various wells on the plate. All wells then receive ^3 H-5-HT and are incubated at 37° C. for 5 min. The wells are then washed with ice cold 50 mM Tris HCl (pH 7.4) buffer and aspirated to remove free ^3 H-5-HT. 25 μl of 0.25 M NaOH is then added to each well to lyse the cells and 75 μl scintillation cocktail (Microscint™ 20) added prior to quantitation on a Packard TopCount machine. Tubes with vehicle represent total possible uptake, radioactivity counted in tubes with fluoxetine represent nonspecific binding/uptake and is subtracted from the total possible uptake to give total possible specific uptake. This nonspecific binding (usual low in number) is then subtracted from the counts obtained in wells with various test compounds (or different concentrations of test drug) to give specific uptake in the presence of drug. Specific uptake is then expressed as a % of control values and is analyzed using nonlinear regression analysis (Prizm) to determine IC50 values. If the compound is active at inhibiting 5-HT uptake, its counts will be close to that obtained with fluoxetine.

[1] = rat frontal cortical membranes; ^3 H-paroxetine (0.1 nM), 60 min, 25° C.; n = 1; read-out: RB 5HT Transporter Ki
[2] = Jar cells (human carcinoma), staurosporine treated, ^3 H-5-HT uptake, 37° C., 5 min, n = 1, read-out: HC 5HT Transporter IC50
[3] = RB 5HT Transporter Ki, rat frontal cortical membranes; ^3 H-paroxetine (0.1 nM), 60 min, 25° C.; n = 1

T2 sequence (P31645 whole entry): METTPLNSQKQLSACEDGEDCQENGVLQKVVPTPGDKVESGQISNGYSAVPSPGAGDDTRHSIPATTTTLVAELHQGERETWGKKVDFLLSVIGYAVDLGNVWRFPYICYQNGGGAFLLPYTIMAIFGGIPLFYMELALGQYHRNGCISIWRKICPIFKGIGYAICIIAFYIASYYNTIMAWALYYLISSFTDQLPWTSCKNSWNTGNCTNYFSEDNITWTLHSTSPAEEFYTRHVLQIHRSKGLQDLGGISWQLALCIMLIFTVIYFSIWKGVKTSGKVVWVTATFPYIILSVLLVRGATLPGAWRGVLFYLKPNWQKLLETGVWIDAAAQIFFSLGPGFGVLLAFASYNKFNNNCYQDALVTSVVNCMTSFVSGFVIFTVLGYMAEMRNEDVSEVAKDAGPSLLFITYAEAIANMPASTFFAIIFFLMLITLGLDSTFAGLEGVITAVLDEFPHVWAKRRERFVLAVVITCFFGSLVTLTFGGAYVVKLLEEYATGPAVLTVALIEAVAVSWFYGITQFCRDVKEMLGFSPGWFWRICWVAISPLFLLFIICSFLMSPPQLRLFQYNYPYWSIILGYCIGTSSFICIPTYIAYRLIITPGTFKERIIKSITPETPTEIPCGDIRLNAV
T1 sequence (P31652 whole entry): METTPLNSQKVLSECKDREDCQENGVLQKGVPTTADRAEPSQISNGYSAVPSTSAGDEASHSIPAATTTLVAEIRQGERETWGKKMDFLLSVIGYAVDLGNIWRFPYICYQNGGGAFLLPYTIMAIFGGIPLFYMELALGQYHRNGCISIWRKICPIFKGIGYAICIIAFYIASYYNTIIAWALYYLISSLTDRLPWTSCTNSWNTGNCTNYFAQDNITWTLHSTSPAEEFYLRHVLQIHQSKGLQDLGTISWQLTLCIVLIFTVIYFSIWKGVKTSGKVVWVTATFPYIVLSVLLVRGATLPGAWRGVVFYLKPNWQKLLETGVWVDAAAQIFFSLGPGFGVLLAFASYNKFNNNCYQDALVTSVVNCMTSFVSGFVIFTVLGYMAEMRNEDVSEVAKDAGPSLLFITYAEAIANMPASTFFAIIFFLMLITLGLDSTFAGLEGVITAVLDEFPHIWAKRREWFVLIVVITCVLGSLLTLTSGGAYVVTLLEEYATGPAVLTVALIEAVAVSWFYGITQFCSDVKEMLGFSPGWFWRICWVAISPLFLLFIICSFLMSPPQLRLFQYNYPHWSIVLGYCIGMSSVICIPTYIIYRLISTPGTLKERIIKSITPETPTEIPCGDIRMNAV

Row | Compound | Ki (5-HT transporter; [1]) | IC50 (Human 5-HT Transporter; [2]) | Ki (5-HT transporter; [3]) | further results
1 | COc1cccc(OC2CN([C@H]3CC[C@H](c4c[nH]c5ccc(F)cc54)CC3)C2)c1 [Example 8b, 5-Fluoro-3-{trans-4-[3-(3-methoxy-phenoxy)-azetidin-1-yl]-cyclohexyl}-1H-indole] | 45 nM | 1500 nM |  | 
2 | COc1ccccc1NC1CN([C@H]2CC[C@@H](c3c[nH]c4ccccc43)CC2)C1 [Example 5a, {1-[cis-4-(1H-Indol-3-yl)-cyclohexyl]-azetidin-3-yl}-(2-methoxy-phenyl)-amine] |  |  | 124 nM | 
3 | Fc1cccc(OC2CN([C@H]3CC[C@@H](c4c[nH]c5ccc(F)cc54)CC3)C2)c1 [Example 7a, 5-Fluoro-3-{cis-4-[3-(3-fluoro-phenoxy)-azetidin-1-yl]-cyclohexyl}-1H-indole] | 257 nM |  |  | 
4 | 2-{cis-4-[3-(3-Methoxy-phenoxy)-azetidin-1-yl]-cyclohexyl}-1H-indole [Example 6a] | 120 nM |  |  | 
5 | COc1ccccc1NC1CN([C@H]2CC[C@H](c3c[nH]c4ccccc43)CC2)C1 [Example 5b, {1-[trans-4-(1H-Indol-3-yl)-cyclohexyl]-azetidin-3-yl}-(2-methoxy-phenyl)-amine] |  |  | 34 nM | 
6 | Fc1cccc(OC2CN([C@H]3CC[C@@H](c4c[nH]c5ccccc54)CC3)C2)c1 [Example 9a, 3-{4-[3-(3-Fluoro-phenoxy)-azetidin-1-yl]-cyclohexyl}-1H-indole] |  |  | 275 nM | 
7 | N#Cc1ccc2[nH]cc([C@H]3CC[C@H](N4CC(Oc5cccc(F)c5)C4)CC3)c2c1 [Example 2b, 3-(trans-4-[3-(3-Fluoro-phenoxy)-azetidin-1-yl]-cyclohexyl)-1H-indole-5-carbonitrile] | 48 nM | 282 nM |  | 
8 | Fc1cccc(OC2CN(C3CCC(c4c[nH]c5cc(F)ccc45)CC3)C2)c1 (single isomer, unassigned) [Example 10a, 6-Fluoro-3-{4-[3-(3-fluoro-phenoxy)-azetidin-1-yl]-cyclohexyl}-1H-indole] | 190 nM |  |  | 
9 | Fc1cccc(OC2CN([C@H]3CC[C@H](c4c[nH]c5ccccc54)CC3)C2)c1 [Example 9b, 3-{4-[3-(3-Fluoro-phenoxy)-azetidin-1-yl]-cyclohexyl}-1H-indole] |  |  | 455 nM | 
10 | COc1ccccc1NC1CN([C@H]2CC[C@H](c3c[nH]c4ccc(F)cc43)CC2)C1 [Example 1b] | 17 nM | 591 nM |  | 
11 | COc1ccccc1NC1CN([C@H]2CC[C@@H](c3c[nH]c4ccc(F)cc43)CC2)C1 [Example 1a] | 15 nM | 962 nM |  | 
12 | Fc1cccc(OC2CN(C3CCC(c4c[nH]c5cc(F)ccc45)CC3)C2)c1 (single isomer, unassigned) [Example 10b, 6-Fluoro-3-{4-[3-(3-fluoro-phenoxy)-azetidin-1-yl]-cyclohexyl}-1H-indole] | 73 nM | 4600 nM |  | 
13 | Fc1cccc(NC2CN([C@H]3CC[C@@H](c4c[nH]c5ccc(F)cc54)CC3)C2)c1 [Example 4, {1-[cis-4-(5-Fluoro-1H-indol-3-yl)-cyclohexyl]-azetidin-3-yl}-(3-fluoro-phenyl)-amine] | 18 nM | 6390 nM |  | 
14 | COc1cccc(OC2CN([C@H]3CC[C@H](c4c[nH]c5ccc(C#N)cc54)CC3)C2)c1 [Example 3b] |  |  | 11 nM | IC50 (Human 5-HT Transporter): 232 nM
15 | COc1cccc(OC2CN([C@H]3CC[C@@H](c4c[nH]c5ccc(F)cc54)CC3)C2)c1 [Example 8a, 5-Fluoro-3-{cis-4-[3-(3-methoxy-phenoxy)-azetidin-1-yl]-cyclohexyl}-1H-indole] | 24 nM | 6000 nM |  | 
16 | COc1cccc(OC2CN([C@H]3CC[C@@H](c4c[nH]c5ccc(C#N)cc54)CC3)C2)c1 [Example 3a] |  |  | 2.38 nM | IC50 (Human 5-HT Transporter): 91 nM
17 | Fc1cccc(OC2CN([C@H]3CC[C@H](c4c[nH]c5ccc(F)cc54)CC3)C2)c1 [Example 7b, 5-Fluoro-3-{trans-4-[3-(3-fluoro-phenoxy)-azetidin-1-yl]-cyclohexyl}-1H-indole] |  |  |  | Ki (5-HT transporter; read-out: RB 5HT Transporter Ki; rat frontal cortical membranes; ^3 H-paroxetine (0.1 nM), 60 min, 25° C.; n = 1): 68 nM; IC50 (Human 5-HT Transporter; read-out: HC 5HT Transporter IC50, Jar cells (human carcinoma), staurosporine treated, ^3 H-5-HT uptake, 37° C., 5 min, n = 1): 6000 nM
18 | N#Cc1ccc2[nH]cc([C@H]3CC[C@@H](N4CC(Oc5cccc(F)c5)C4)CC3)c2c1 [Example 2a, 3-(cis-4-[3-(3-Fluoro-phenoxy)-azetidin-1-yl]-cyclohexyl)-1H-indole-5-carbonitrile] | 16 nM | 337 nM |  | 
